US20160037775A1, “ACTIVE INGREDIENT COMBINATIONS HAVING INSECTICIDAL AND ACARICIDAL PROPERTIES” (priority 2010, published 2016)
Read-outs that look alike come from different tables or passages of the source.

Legend:
Assay type in all cases: in vivo
[1] = system: Tetranychus urticae; test: Tetranychus test (OP-resistant/spray treatment); settings: for Kill rate in % after 6 d / pest or weed control at 4 g/ha: after 6 d
Text: (§1) The expected action for a given combination of two active ingredients can be calculated according to S. R. Colby, Weeds 15 (1967), 20-22 as follows:
(§2) • X is the kill rate, expressed in % of the untreated control, in the case of use of active ingredient A in an application rate of m g/ha or in a concentration of m ppm, • Y is the kill rate, expressed in % of the untreated control, in the case of use of active ingredient B in an application rate of n g/ha or in a concentration of n ppm, and • E is the kill rate, expressed in % of the untreated control, in the case of use of active ingredients A and B in application rates of m and n g/ha or in a concentration of m and n ppm, then
(§3) If the actual kill rate is greater than that calculated, the kill rate of the combination is superadditive, which means that a synergistic effect is present. In this case, the kill rate actually observed must be greater than the value calculated from the above formula for the expected kill rate (E).
(§4) • 78 parts by weight of acetone • 1.5 parts by weight of dimethylformamide Emulsifier: 0.5 part by weight of alkylaryl polyglycol ether
(§5) To produce an appropriate active ingredient formulation, 1 part by weight of active ingredient is mixed with the stated amounts of solvent and emulsifier, and the concentrate is diluted with emulsifier-containing water to the desired concentration.
Discs of bean leaves (Phaseolus vulgaris) infested by all stages of the two-spotted spider mite (Tetranychus urticae) are sprayed with an active ingredient formulation of the desired concentration.
After the desired period of time, the effect in % is determined. 100% means that all of the spider mites have been killed; 0% means that none of the spider mites have been killed.

[2] = system: Phaedon cochleariae; test: whole plant or invertebrate
Text: as §1, §2, §3, §4, §5
Cabbage leaves (Brassica oleracea) are treated by spraying with the active ingredient formulation of the desired concentration and populated with larvae of the mustard beetle (Phaedon cochleariae) while the leaves are still moist.
After the desired period of time, the kill rate in % is determined. 100% means that all beetle larvae have been killed; 0% means that none of the beetle larvae have been killed. The kill rates determined are entered into Colby's formula.

[3] = system: Myzus persicae; test: whole plant or invertebrate
Text: as §3, §4, §5
After the desired time, the kill in % is determined. 100% means that all aphids have been killed; 0% means that no aphids have been killed. The kill rates determined are entered into Colby's formula.

[4] = system: Spodoptera frugiperda; test: whole plant or invertebrate
Text: as §3, §4, §5
After the desired time, the kill in % is determined. 100% means that all caterpillars have been killed; 0% means that none of the caterpillars have been killed. The kill rates determined are entered into Colby's formula.

[5] = Spodoptera frugiperda, 144 h, 0.8 g/ha, after 6 d, read-out: Kill rate in % after 6 d
[6] = Spodoptera frugiperda, 144 h, 4 g/ha, after 6 d, read-out: Kill rate in % after 6 d
[7] = Phaedon cochleariae, 144 h, 4 g/ha, after 6 d, read-out: Kill rate in % after 6 d
[8] = Tetranychus urticae, 144 h, 4 g/ha, applied individually, read-out: Kill rate in % after 6 d
[9] = Spodoptera frugiperda, 144 h, 0.032 g/ha, after 6 d, read-out: Kill rate in % after 6 d
[10] = Myzus persicae, 144 h, 4 g/ha, after 6 d, read-out: Kill rate in % after 6 d
[11] = Phaedon cochleariae, 144 h, after 6 d, read-out: Kill rate in % after 6 d

abamectin
Kill rate in % after 6 d ([1]; 0.0064 g/ha, applied individually): 0%
Kill rate in % after 6 d ([1]; 0.032 g/ha, applied individually): 80%
Kill rate in % after 6 d ([2]; 0.032 g/ha, after 6 d): 0%
Kill rate in % after 1 d ([3]; 0.16 g/ha, after 1 d): 0%

spinetoram
Kill rate in % after 6 d ([1]; 4 g/ha, applied individually): 20%
Kill rate in % after 6 d ([2]; 0.16 g/ha, after 6 d): 0%
Kill rate in % after 6 d ([3]; 0.8 g/ha, after 6 d): 0%
Kill rate in % after 1 d ([3]; 4 g/ha, after 1 d): 0%

O=C(NC(=O)c1c(F)cccc1F)Nc1cc(Cl)c(OC(F)(F)C(F)C(F)(F)F)cc1Cl (centres unmarked) [lufenuron]
pest or weed control at 100 g/ha ([1]; Tetranychus urticae, 48 h, 100 g/ha, after 2 d, applied individually, read-out: Kill rate in % after 2 d): 0%
pest or weed control at 0.8 g/ha [4, 5]: 17%

CCCSP(=O)(OCC)Oc1ccc(Br)cc1Cl (centres unmarked) [profenophos]
pest or weed control at 4 g/ha [4, 6]: 17%
Kill rate in % after 2 d ([2]; 4 g/ha): 0%
pest or weed control at 4 g/ha [2, 7]: 0%

CC1(C)[C@H](C(=O)O[C@H](C#N)c2cccc(Oc3ccccc3)c2)[C@@H]1/C=C(\Cl)C(F)(F)F [L-cyhalothrin]
pest or weed control at 4 g/ha [1, 8]: 20%
pest or weed control at 0.032 g/ha [4, 9]: 0%
pest or weed control at 0.16 g/ha ([3]; Myzus persicae, 24 h, 0.16 g/ha, after 1 d, read-out: Kill rate in % after 1 d): 0%

Nc1nc(N)nc(NC2CC2)n1 [cyromazine]
pest or weed control at 4 g/ha [4, 6]: 0%
pest or weed control at 4 g/ha [2, 7]: 0%
pest or weed control at 100 g/ha ([3]; Myzus persicae, 24 h, 100 g/ha, after 1 d, read-out: Kill rate in % after 1 d): 0%

CNC(=O)Oc1cccc2ccccc12 [carbaryl]
pest or weed control at 500 g/ha ([1]; Tetranychus urticae, 48 h, read-out: Kill rate in % after 2 d): 10%
pest or weed control at 500 g/ha ([1]; Tetranychus urticae, 144 h, read-out: Kill rate in % after 6 d): 20%
pest or weed control at 4 g/ha ([4]; Spodoptera frugiperda, 144 h, read-out: Kill rate in % after 6 d): 0%
pest or weed control at 500 g/ha ([3]; Myzus persicae, 24 h, read-out: Kill rate in % after 1 d): 0%

CCc1ccc(C(=O)NN(C(=O)c2cc(C)cc(C)c2)C(C)(C)C)cc1 [tebufenozide]
pest or weed control at 0.16 g/ha ([4]; Spodoptera frugiperda, 144 h, 0.16 g/ha, after 6 d, read-out: Kill rate in % after 6 d): 0%
Kill rate in % after 2 d ([2]; 4 g/ha): 0%
pest or weed control at 4 g/ha [3, 10]: 0%

O=C(NC(=O)c1c(F)cccc1F)Nc1ccc(OC(F)(F)C(F)OC(F)(F)F)c(Cl)c1 (centres unmarked) [novaluron]
pest or weed control at 0.8 g/ha [4, 5]: 67%
pest or weed control at 0.8 g/ha [2, 11]: 0%

CCC(C)(C)C(=O)OC1=C(c2ccc(Cl)cc2Cl)C(=O)OC12CCCCC2 [spirodiclofen]
Kill rate in % after 2 d ([1]; 100 g/ha, after 2 d, applied individually): 0%
Kill rate in % after 6 d ([2]; 4 g/ha, after 6 d): 0%
Kill rate in % after 1 d ([3]; 20 g/ha, after 1 d): 0%
Kill rate in % after 1 d ([3]; 100 g/ha, after 1 d): 0%

COc1cccc(C(=O)NN(C(=O)c2cc(C)cc(C)c2)C(C)(C)C)c1C [methoxyfenozide]
pest or weed control at 0.8 g/ha [4, 5]: 0%
pest or weed control at 0.8 g/ha [2, 11]: 0%
pest or weed control at 4 g/ha [3, 10]: 0%

FC(F)(F)c1ccc(OCCCOc2c(Cl)cc(OCC=C(Cl)Cl)cc2Cl)nc1 [pyridalyl]
pest or weed control at 4 g/ha [4, 6]: 0%
pest or weed control at 4 g/ha [2, 7]: 0%
pest or weed control at 4 g/ha ([3]; Myzus persicae, 24 h, 4 g/ha, after 1 d, read-out: Kill rate in % after 1 d): 0%

CNC(=O)c1cc(Cl)cc(C)c1NC(=O)c1cc(Br)nn1-c1ncccc1Cl [chloranthraniliprole]
pest or weed control at 0.032 g/ha [4, 9]: 50%

spinosad
Kill rate in % after 2 d ([1]; 20 g/ha, after 2 d, applied individually): 20%
Kill rate in % after 6 d ([4]; 0.16 g/ha, after 6 d): 0%

CCc1nn(C)c(C(=O)NCc2ccc(C(C)(C)C)cc2)c1Cl [tebufenpyrad]
pest or weed control at 0.16 g/ha ([1]; Tetranychus urticae, 48 h, 0.16 g/ha, after 2 d, applied individually, read-out: Kill rate in % after 2 d): 0%
pest or weed control at 4 g/ha [1, 8]: 40%
pest or weed control at 0.16 g/ha ([2]; Phaedon cochleariae, 144 h, 0.16 g/ha, after 6 d, read-out: Kill rate in % after 6 d): 0%
pest or weed control at 0.8 g/ha ([3]; Myzus persicae, 24 h, 0.8 g/ha, after 1 d, read-out: Kill rate in % after 1 d): 0%
pest or weed control at 0.16 g/ha ([3]; Myzus persicae, 144 h, 0.16 g/ha, after 6 d, read-out: Kill rate in % after 6 d): 0%

Cc1nn(C)c(Oc2ccccc2)c1C=NOCc1ccc(C(=O)OC(C)(C)C)cc1 [fenpyroximate]
pest or weed control at 0.8 g/ha ([1]; Tetranychus urticae, 48 h, 0.8 g/ha, after 2 d, applied individually, read-out: Kill rate in % after 2 d): 0%
Kill rate in % after 2 d ([4]; 0.8 g/ha): 0%

CC1(C)[C@H](C(=O)O[C@H](C#N)c2cccc(Oc3ccccc3)c2)[C@@H]1/C=C(\Cl)C(F)(F)F [gamma-cyhalothrin]
Kill rate in % after 2 d ([1]; 0.8 g/ha, after 2 d, applied individually): 0%
Kill rate in % after 2 d ([4]; 0.032 g/ha): 17%
Kill rate in % after 1 d ([3]; 0.032 g/ha, after 1 d): 0%

COCCOC(=O)C(C#N)(C(=O)c1ccccc1C(F)(F)F)c1ccc(C(C)(C)C)cc1 (centres unmarked) [cyflumetofen]
pest or weed control at 4 g/ha [4, 6]: 17%
pest or weed control at 4 g/ha [2, 7]: 0%

O=S(=O)(CCC(F)=C(F)F)c1ncc(Cl)s1 [fluensulfone]
Kill rate in % after 2 d ([1]; 2000 g/ha, after 2 d, applied individually): 0%
Kill rate in % after 6 d ([4]; 2000 g/ha, after 6 d): 0%

O=C(NC(=O)c1c(F)cccc1F)Nc1ccc(Oc2ccc(C(F)(F)F)cc2Cl)cc1F [flufenoxuron]
pest or weed control at 0.8 g/ha [4, 5]: 0%
pest or weed control at 0.8 g/ha ([3]; Myzus persicae, 144 h, 0.8 g/ha, after 6 d, read-out: Kill rate in % after 6 d): 0%

COC(=O)N(C(=O)N1CO[C@@]2(C(=O)OC)Cc3cc(Cl)ccc3C2=N1)c1ccc(OC(F)(F)F)cc1 [indoxacarb]
Kill rate in % after 2 d ([4]; 0.8 g/ha): 50%
Kill rate in % after 1 d ([3]; 20 g/ha, after 1 d): 0%
